# Experiments:
# [1] = tested on: 433 gene transcriptomic signature; settings: 10 uM, MCF7 cells; FIG. 3
# CYP1A2 = biological target: T1, CYP1A2 (Homo sapiens, UniProt P05177); settings: cited from earlier work
# T1 sequence (P05177 1-516): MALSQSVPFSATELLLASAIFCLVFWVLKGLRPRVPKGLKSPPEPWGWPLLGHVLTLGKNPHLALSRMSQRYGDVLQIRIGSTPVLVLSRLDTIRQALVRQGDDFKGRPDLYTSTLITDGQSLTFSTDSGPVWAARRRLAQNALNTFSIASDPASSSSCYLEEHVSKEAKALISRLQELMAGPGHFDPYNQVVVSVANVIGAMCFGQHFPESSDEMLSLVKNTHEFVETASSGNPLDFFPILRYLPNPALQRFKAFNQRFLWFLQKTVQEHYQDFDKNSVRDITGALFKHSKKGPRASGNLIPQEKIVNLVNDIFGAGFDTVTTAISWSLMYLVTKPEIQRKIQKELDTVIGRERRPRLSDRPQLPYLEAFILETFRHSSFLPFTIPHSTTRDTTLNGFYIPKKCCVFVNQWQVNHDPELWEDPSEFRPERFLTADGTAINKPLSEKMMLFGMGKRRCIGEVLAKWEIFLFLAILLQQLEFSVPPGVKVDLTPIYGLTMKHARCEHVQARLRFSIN
smiles,measurement,setting,value
O=C(CCCN1CCC(O)(c2ccc(Cl)cc2)CC1)c1ccc(F)cc1 [haloperidol],"extrapyramidal syndrome propensity score, compound alone",[1],much higher propensity than risperidone
same,interaction with CYP1A2,CYP1A2,has not been shown to interact with haloperidol
